In patent US8519128B2, “Pyripyropene derivatives having an ACAT2-inhibiting activity” (The Kitasato Institute, priority 2007, dated 2013):

What was measured:
ACAT 2 = target: T1, ACAT 2 (Mus musculus, UniProt O88908); assay: ACAT-inhibiting activity, mouse liver microsome membrane fraction, [14C]oleoyl-CoA; type: biochemical; details: for IC50: mouse liver microsome, 5 minutes at 37° C.; for Specific activity: (inhibitory activity of test compound)/(inhibitory activity of pyripyropene A): relative to pyripyropene A
T1 construct: The source of ACAT 2 enzyme used was a membrane fraction derived from mouse liver microsome; from tissue; host or cells: mouse liver (microsome fraction)
T1 sequence (O88908 1-525): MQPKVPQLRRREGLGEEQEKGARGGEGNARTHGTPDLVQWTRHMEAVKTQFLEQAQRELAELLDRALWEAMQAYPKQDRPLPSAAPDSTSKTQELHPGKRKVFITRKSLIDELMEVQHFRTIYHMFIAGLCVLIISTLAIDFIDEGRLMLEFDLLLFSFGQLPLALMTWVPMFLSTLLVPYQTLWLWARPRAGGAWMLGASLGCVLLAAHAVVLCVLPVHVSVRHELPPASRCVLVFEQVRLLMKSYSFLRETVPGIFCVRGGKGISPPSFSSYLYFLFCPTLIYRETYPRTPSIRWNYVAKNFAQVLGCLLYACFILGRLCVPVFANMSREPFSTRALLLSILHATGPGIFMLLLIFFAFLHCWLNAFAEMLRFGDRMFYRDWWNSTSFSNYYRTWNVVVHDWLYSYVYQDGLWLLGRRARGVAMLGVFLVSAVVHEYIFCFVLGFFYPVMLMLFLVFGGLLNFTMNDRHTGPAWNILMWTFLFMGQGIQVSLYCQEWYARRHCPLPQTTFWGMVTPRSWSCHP
Outline: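 Enzyme source: mouse liver microsomal membrane fraction (100000×g pellet) at 5 mg/ml protein in 50 mM Tris-HCl pH 7.8, 1 mM EDTA, 1 mM PMSF; substrate [14C]oleoyl-CoA. Chloroform-extracted lipids resolved by silica TLC in hexane/diethyl ether/acetic acid (70:30:1).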

[1] = tested on: apolipoprotein E-deficient mice; assay: Total plasma cholesterol after 14 days of daily oral administration, high-fat feed; type: in vivo; details: for total plasma cholesterol at day 14 (% of day 0): day 0 taken as 100%, control 212.2%; for suppression of the increase in total plasma cholesterol compared with pyripyropene A: oral administration, apolipoprotein E-deficient mice
Description: Ten-week old apolipoprotein E-deficient mice (males, purchased from Jackson Laboratories) were kept under cycles of artificial light (day) for 12 hours and dark (night) for 12 hours by appropriately feeding a standard high-fat feed (D12079B, Research Diet). Before starting a test for each test compound, 100 μL of blood were collected from the caudal vein of each animal to measure the total cholesterol concentration in plasma using a commercially available kit (Determiner TC 555, Kyowa Medex). […] The test compound was orally administered daily at the start of the artificial light cycle of each day.
Blood was collected at the start of the artificial light cycle on day 14 of administration of the test compound to measure the total plasma cholesterol. The total plasma cholesterol before administration of the test compound (on day 0) was taken as 100%, and the percent increase in total plasma cholesterol on day 14 after administration of the test compound started was calculated.

Structure (SMILES)	IC50 (ACAT 2)	Specific activity: (inhibitory activity of test compound)/(inhibitory activity of pyripyropene A) (ACAT 2)	total plasma cholesterol at day 14 (% of day 0) ([1]; 1 mg/kg oral daily)	total plasma cholesterol at day 14 (% of day 0) ([1]; 10 mg/kg oral daily)	total plasma cholesterol at day 14 (% of day 0) ([1]; 50 mg/kg oral daily)	suppression of the increase in total plasma cholesterol compared with pyripyropene A [1]
CC(=O)OCC1(C)C2C[C@H](OC(=O)c3ccc(C#N)cc3)[C@@]3(C)Oc4cc(-c5cccnc5)oc(=O)c4[C@H](O)C3[C@@]2(C)CC[C@@H]1OC(C)=O (stereo partly shown) [PRD 017, 7-p-cyanobenzoyl-7-deacetylpyripyropene A]	10 to 100 nM	+++ (50 > specific activity > 10)	161.6%	149.7%	132.5%	to a greater degree than did pyripyropene A
CC(C)C(=O)OCC1(C)C2C[C@H](OC(=O)c3ccc(C#N)cc3)[C@@]3(C)Oc4cc(-c5cccnc5)oc(=O)c4[C@H](O)C3[C@@]2(C)CC[C@@H]1OC(=O)C(C)C (stereo partly shown) [PRD 056, 7-O-p-cyanobenzoyl-1,11-di-(O-isobutyryl)-1,7,11-trideacetylpyripyropene A]	10 to 100 nM	+++ (50 > specific activity > 10)	148.0%	114.8%	86.1%	to a greater degree than did pyripyropene A
CC12COC(c3ccccc3)O[C@H]1CC[C@@]1(C)C2C[C@H](OC(=O)c2ccc(C#N)cc2)[C@@]2(C)Oc3cc(-c4cccnc4)oc(=O)c3[C@H](O)C12 (stereo partly shown) [PRD 041, 1,11-O-benzylidene-7-O-p-cyanobenzoyl-1,7,11-trideacetylpyripyropene A]	10 to 100 nM	+ (5 > specific activity > 1)	102.4%	88.2%	101.1%	to a greater degree than did pyripyropene A
CC(=O)OCC1(C)C(OC(C)=O)CCC2(C)C1CC(OC(C)=O)C1(C)Oc3cc(-c4cccnc4)oc(=O)c3C(O)C21 (stereo not shown) [Pyripyropene A, reference compound]	–	–	–	177.3%	174.0%	–
CC(=O)OCC1(C)C2C[C@H](OC(=O)c3ccc([N+](=O)[O-])cc3)[C@@]3(C)Oc4cc(-c5cccnc5)oc(=O)c4[C@H](O)C3[C@@]2(C)CC[C@@H]1OC(C)=O (stereo partly shown) [PRD 029, 7-p-nitrobenzoyl-7-deacetylpyripyropene A]	10 to 100 nM	+ (5 > specific activity > 1)	–	–	–	–
